According to BindingDB's records for doi:10.1038/sj.bjp.0702059 (Smithkline Beecham Pharmaceuticals, 1998):

Experiments:
[1] = target: 5-hydroxytryptamine receptor 2A (Homo sapiens, UniProt P28223)
[2] = target: T1, 5-hydroxytryptamine receptor 1F (Homo sapiens, UniProt P30939)
T1 sequence (P30939 whole entry): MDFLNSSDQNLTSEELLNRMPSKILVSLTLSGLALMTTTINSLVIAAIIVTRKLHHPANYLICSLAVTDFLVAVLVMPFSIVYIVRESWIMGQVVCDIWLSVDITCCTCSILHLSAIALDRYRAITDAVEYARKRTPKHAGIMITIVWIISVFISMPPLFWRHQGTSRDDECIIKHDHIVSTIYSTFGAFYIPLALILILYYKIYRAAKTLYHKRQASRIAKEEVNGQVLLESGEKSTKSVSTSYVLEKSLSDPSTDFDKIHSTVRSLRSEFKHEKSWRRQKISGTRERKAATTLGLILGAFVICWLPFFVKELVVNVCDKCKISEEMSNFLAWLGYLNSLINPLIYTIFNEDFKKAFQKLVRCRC

[3] = target: 5-hydroxytryptamine receptor 7 (Homo sapiens, UniProt P34969)
[4] = target: 5-hydroxytryptamine receptor 4 (Homo sapiens, UniProt Q13639)
[5] = target: 5-hydroxytryptamine receptor 2B (Homo sapiens, UniProt P41595)
[6] = target: 5-hydroxytryptamine receptor 1E (Homo sapiens, UniProt P28566)
[7] = target: 5-hydroxytryptamine receptor 6 (Homo sapiens, UniProt P50406)
[8] = target: 5-hydroxytryptamine receptor 1B (Homo sapiens, UniProt P28222)
5-hydroxytryptamine receptor 1B, sequence (P28222 whole entry): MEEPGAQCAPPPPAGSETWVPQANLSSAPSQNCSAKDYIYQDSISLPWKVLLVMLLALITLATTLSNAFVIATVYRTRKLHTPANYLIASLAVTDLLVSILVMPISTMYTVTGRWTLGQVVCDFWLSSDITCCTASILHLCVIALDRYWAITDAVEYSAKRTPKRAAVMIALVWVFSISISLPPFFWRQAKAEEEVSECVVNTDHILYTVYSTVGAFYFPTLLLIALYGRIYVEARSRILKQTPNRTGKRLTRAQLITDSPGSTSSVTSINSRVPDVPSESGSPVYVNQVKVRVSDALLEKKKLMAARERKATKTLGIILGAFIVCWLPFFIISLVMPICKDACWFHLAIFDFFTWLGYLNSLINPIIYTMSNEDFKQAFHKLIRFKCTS

5-hydroxytryptamine receptor 7, sequence (P34969 whole entry): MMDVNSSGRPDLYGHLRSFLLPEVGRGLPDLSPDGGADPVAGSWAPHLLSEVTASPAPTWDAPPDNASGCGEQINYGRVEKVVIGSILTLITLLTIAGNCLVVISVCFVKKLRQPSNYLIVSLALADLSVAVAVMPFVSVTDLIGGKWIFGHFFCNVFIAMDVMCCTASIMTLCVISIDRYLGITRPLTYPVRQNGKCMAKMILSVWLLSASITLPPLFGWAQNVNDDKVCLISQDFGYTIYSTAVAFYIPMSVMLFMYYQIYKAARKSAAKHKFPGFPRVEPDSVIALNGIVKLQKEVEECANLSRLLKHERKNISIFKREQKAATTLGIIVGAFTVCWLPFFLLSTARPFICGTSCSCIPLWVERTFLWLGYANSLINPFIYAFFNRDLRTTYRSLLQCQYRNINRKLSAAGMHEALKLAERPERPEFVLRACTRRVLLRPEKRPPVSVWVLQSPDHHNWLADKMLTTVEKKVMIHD
5-hydroxytryptamine receptor 2A, sequence (P28223 whole entry): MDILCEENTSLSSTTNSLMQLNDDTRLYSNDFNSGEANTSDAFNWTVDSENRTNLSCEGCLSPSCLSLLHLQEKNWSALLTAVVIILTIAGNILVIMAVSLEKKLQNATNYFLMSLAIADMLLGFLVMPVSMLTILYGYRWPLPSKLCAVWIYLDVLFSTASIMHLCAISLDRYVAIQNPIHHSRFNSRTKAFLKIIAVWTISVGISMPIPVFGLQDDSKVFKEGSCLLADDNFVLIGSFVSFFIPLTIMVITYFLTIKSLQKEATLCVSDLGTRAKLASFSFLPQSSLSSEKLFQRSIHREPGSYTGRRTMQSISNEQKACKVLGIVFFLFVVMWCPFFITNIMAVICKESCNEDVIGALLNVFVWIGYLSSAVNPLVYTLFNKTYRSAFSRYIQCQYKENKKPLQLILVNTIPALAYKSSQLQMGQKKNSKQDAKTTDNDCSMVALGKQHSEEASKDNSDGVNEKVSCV
5-hydroxytryptamine receptor 4, sequence (Q13639 whole entry): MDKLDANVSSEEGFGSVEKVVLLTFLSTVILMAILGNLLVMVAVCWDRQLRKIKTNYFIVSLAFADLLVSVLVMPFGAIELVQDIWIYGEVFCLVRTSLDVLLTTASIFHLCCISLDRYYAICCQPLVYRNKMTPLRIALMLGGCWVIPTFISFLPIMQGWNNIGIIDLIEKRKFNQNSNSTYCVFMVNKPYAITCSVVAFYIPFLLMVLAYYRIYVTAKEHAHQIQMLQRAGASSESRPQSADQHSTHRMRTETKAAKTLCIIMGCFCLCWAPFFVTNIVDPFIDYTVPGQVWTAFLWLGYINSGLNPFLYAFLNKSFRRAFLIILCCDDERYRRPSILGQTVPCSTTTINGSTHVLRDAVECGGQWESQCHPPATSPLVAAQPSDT
5-hydroxytryptamine receptor 1E, sequence (P28566 whole entry): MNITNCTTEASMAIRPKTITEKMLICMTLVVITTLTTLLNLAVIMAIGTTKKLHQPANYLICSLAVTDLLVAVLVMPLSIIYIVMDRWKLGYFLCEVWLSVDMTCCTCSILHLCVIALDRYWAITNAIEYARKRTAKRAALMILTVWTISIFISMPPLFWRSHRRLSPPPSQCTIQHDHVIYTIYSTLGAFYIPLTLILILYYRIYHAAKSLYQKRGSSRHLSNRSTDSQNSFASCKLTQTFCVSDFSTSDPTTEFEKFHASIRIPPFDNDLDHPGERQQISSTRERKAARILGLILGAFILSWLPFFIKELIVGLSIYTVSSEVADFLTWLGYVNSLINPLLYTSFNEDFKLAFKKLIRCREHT
5-hydroxytryptamine receptor 6, sequence (P50406 whole entry): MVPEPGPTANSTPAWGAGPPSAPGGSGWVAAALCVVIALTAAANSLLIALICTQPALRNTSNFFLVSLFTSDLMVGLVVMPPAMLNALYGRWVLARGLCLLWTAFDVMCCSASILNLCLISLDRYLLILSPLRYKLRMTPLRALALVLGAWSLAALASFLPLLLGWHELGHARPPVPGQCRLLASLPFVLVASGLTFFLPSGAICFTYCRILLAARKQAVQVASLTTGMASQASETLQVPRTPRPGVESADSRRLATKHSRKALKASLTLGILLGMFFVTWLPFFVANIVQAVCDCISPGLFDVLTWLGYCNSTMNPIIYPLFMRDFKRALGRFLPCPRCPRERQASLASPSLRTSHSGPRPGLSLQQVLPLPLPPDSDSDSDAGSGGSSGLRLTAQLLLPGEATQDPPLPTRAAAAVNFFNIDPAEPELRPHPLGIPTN
5-hydroxytryptamine receptor 2B, sequence (P41595 whole entry): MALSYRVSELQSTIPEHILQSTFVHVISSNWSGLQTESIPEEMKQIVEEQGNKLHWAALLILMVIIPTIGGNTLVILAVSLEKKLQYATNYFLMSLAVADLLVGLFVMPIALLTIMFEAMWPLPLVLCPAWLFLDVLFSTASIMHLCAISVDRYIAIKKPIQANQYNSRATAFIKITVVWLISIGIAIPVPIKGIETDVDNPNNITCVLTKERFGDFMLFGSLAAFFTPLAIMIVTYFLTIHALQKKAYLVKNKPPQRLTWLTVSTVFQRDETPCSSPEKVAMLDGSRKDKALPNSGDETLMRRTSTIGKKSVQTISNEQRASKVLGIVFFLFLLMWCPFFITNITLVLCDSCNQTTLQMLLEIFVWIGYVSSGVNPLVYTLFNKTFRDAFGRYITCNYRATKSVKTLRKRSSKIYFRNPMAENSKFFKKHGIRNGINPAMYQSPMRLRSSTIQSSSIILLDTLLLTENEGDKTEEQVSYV

Structure (SMILES) | Ki [1] | Ki [2] | Ki [3] | Ki [4] | Ki [5] | Ki [6] | Ki [7] | Ki [8]
Cc1nc(-c2ccc(-c3ccc(C(=O)N4CCc5cc6c(cc54)C4(CCN(C)CC4)CO6)cc3)c(C)c2)no1 [4-[2-methyl-4-(5-methyl-1,2,4-oxadiazol-3-yl)phenyl]phenyl-1'-methylspiro[3,5,6,7-tetrahydro-2H-furo[2,3-f]indole-3,4'-(hexahydropyridine)]-5-ylmethanone] | 1.2 µM | > 10 µM | 1 µM | 2.04 µM | 3.16 µM | > 10 µM | 2.14 µM | 
COc1ccc(NC(=O)c2ccc(-c3ccc(-c4noc(C)n4)cc3C)cc2)cc1N1CCN(C)CC1 [SMR001230745] |  |  |  |  |  |  |  | 0.00093 µM
